Reference: article PMC3866371 (Neuropharmacology, 2013)
Where two headings read alike, the source gives them in different places.

Experiments:
rat α3β4 nAChR [1] = target: T1, rat α3β4 nAChR (Rattus norvegicus, UniProt P04757+P12392); assay: Competition binding with [^125I]AT-1012 as radioligand, HEK cell membranes
rat α4β2 nAChR = rat α4β2 nAChR (Rattus norvegicus, UniProt P09483+P12390); assay: Competition binding with [^3H]epibatidine as radioligand, HEK cell membranes
human α3β4α5 nAChR [2] = target: T2, human α3β4α5 nAChR (Homo sapiens, UniProt P30926+P32297); assay: Competition binding with [^125I]AT-1012 as radioligand, HEK cell membranes
rat α3β4 nAChR [3] = target: T1, rat α3β4 nAChR; assay: Competition binding with [^3H]epibatidine as radioligand, HEK cell membranes
human α3β4α5 nAChR [4] = target: T2, human α3β4α5 nAChR; type: binding
α7 nAChR = α7 nAChR (Homo sapiens, UniProt P36544); assay: Binding at α7 nAChR
[5] = radioligand [^125I]AT-1012, rat α3β4 nAChR, average ± SD
[6] = radioligand [^125I]AT-1012, human α3β4α5 nAChR, average ± SD
[7] = read-out: Binding affinity (Ki)

SMILES | Inhibition of [^125I]AT-1012 binding (rat α3β4 nAChR [1]; rat α3β4 nAChR) | Ki (rat α4β2 nAChR) | Competition with [^125I]AT-1012 at the human α3β4α5 nAChR (human α3β4α5 nAChR [2]) | Hill coefficient (rat α3β4 nAChR [1]; [5]) | Hill coefficient (rat α3β4 nAChR [3]) | Hill coefficient (human α3β4α5 nAChR [2]; [6]) | Hill coefficient (human α3β4α5 nAChR [4]) | Hill coefficient (rat α4β2 nAChR) | Ki (rat α4β2 nAChR; [7]) | also measured
CNC1(C)C2CCC(C2)C1(C)C (stereo not drawn) [Mecamylamine] | do not inhibit | > 10000 nM | do not compete | – | – | – | – | – | – | –
Clc1ccc(C2CC3CCC2N3)cn1 (stereo not drawn) [Epibatidine] | – | – | – | 0.89±0.01 | 1.00±0.06 | 0.88±0.02 | 0.98±0.02 | – | – | –
CN1[C@@H]2CCC[C@H]1CC(Nc1ccccc1I)C2 (stereo partly drawn) [AT-1012] | – | – | – | 1.03±0.01 | 0.77±0.09 | 0.96±0.09 | – | 0.88±0.02 | 142 ± 2 nM | Ki (rat α3β4 nAChR [3]; [7]): 1.3 ± 0.16 nM; Binding selectivity for the α3β4 over α4β2 nAChR (rat α4β2 nAChR): over 100 fold; Ki (human α3β4α5 nAChR [2]; read-out: Binding affinity (Ki) at human α3β4α5 nAChR, radioligand [^125I]AT-1012, average ± SD): 0.68 ± 0.06 nM; Ki (human α3β4α5 nAChR [4]; read-out: Binding affinity (Ki) at human α3β4α5 nAChR): 1.08 ± 0.05 nM; Selectivity versus the α7 nAChR (α7 nAChR): greater than 100 fold
CN1C2CCCC1CC(Nc1ccccc1Br)C2 (stereo not drawn) [AT-1001] | – | – | – | 0.94±0.04 | 0.87±0.19 | 0.95±0.05 | 0.82±0.04 | 0.97±0.11 | 263 ± 9.3 nM | –
CN1CCC[C@H]1c1cccnc1 [Nicotine] | – | – | – | – | – | – | – | – | – | Hill coefficient (rat α3β4 nAChR [1]): 467±48 (0.68±0.02); Hill coefficient (rat α3β4 nAChR [3]; radioligand [^3H]epibatidine, rat α3β4 nAChR, average ± SD): 1.08±0.12; Hill coefficient (rat α4β2 nAChR; radioligand [^3H]epibatidine, rat α4β2 nAChR, average ± SD): 0.95±0.07; Hill coefficient (human α3β4α5 nAChR [2]): 1305±219 (0.75±0.05); Hill coefficient (human α3β4α5 nAChR [4]; radioligand [^3H]epibatidine, human α3β4α5 nAChR, average ± SD): 0.91±0.04
COCC[C@H]1CC2CN3CCc4c([nH]c5ccccc45)[C@](C(=O)OC)(C2)[C@H]13 [Compound 18-MC, 18-methoxycoronaridine] | do not inhibit | > 10000 nM | do not compete | – | – | – | – | – | – | Ki (rat α3β4 nAChR [1]): > 10000 nM; Ki (rat α3β4 nAChR [3]): > 10000 nM
